We go through 1 compound from BindingDB's records for PubMed 39655996 (AstraZeneca).

The experiment addresses Poly [ADP-ribose] polymerase 2 (Homo sapiens, UniProt Q9UGN5). Description: Inhibition of N-terminal 6His-tagged full-length recombinant human PARP2 by fluorescence anisotropy assay. A general note: Fluorescence polarisation rises when a labelled molecule tumbles more slowly, as on binding a larger partner.

Poly [ADP-ribose] polymerase 2, sequence (Q9UGN5 whole entry): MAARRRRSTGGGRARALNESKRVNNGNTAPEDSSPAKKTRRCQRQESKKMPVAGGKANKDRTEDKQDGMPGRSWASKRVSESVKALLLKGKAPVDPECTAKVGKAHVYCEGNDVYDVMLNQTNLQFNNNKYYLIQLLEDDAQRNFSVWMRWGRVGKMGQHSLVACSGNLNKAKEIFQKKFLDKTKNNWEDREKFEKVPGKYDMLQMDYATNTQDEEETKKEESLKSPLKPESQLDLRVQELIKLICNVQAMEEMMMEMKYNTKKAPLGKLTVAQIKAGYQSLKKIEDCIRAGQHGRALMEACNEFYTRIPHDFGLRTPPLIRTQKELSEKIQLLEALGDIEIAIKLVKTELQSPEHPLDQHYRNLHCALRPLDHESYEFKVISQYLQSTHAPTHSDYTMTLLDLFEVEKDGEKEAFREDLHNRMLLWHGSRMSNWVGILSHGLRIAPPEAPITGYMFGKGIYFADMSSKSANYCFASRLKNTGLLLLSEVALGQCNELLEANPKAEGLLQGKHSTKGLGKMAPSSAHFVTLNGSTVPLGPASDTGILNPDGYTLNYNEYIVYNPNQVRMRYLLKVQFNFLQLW

Regarding `CNC(=O)c1ccc(N2CCN(Cc3ccc4nc(C)c(=O)[nH]c4c3F)CC2)c(C)n1` [5-[4-[(5-fluoro-2-methyl-3-oxo-4H-quinoxalin-6-yl)methyl]piperazin-1-yl]-N,6-dimethyl-pyridine-2-carboxamide], the IC50 is over 100 µM.

By IC50 is commonly meant the concentration that gives 50% inhibition.
